# Patent US4636464A (priority 1985, dated 1987)
# Assays:
# Assay type in all cases: biochemical, Coriolus versicolor
# [1] = target: T1, pyranose oxidase (Trametes versicolor, UniProt P79076); assay: biochemical; design: activity: dose or concentration left out as unconfirmed; conditions: for activity: pH 7, read-out: Relative Activity (%); for activity at 100000 µM: pH 7, read-out: Relative Activity (%); for Substrate specificity in words: same test as Table 1
# T1 construct: made in house; not recombinant
# Method: Said coloring reagent is prepared by adding 0.1M tris-hydrochloride buffer (pH 7.0) containing 10 m mol/l 4-aminoantipyrine(hereinafter referred to as 4AA) and 10 m mol/l phenol, to peroxidase in a concentration of 2000 U per 100 ml of the buffer. The increasing rate of the absorbancy at 500 nm is automatically measured on a spectrophotometer. The molecular extinction coefficient of a quinoneimine pigment formed under these conditions is defined as 5.3×10^3, and one unit of the enzymatic activity is also defined as the amount of the enzyme that produces one μ mole of hydrogen peroxide per minute at a temperature of 37° C. and at a pH of 7.0.
# The results are expressed as percentages of the glucose reaction.
# [2] = target: T1, pyranose oxidase; conditions: for Percent Inhibition (%): 0.2 ml of 18.5 mM inhibitor solution, 280 mU pyranose oxidase, pH 7.0, 37° C.
# Text: The inhibitor is studied in the same manner as that adopted in determination of the optimum pH.
# [3] = target: T1, pyranose oxidase; assay: Electron acceptor test (Thunberg tube, absorbancy change)
# Method: In this phase, 1.4 ml of 50 mM tris-hydrochloride buffer (pH 7.0), 0.1 ml of 250 mU enzyme solution and 0.5 ml of electron acceptor solutions having various concentrations as indicated in Table 2 are put into a cell with Thunberg tube. […] The change in absorbancy per minute from 30 minutes to 90 minutes after the mixturing is determined and the activities of the electron acceptors are expressed as relative activity.
# [4] = electron acceptor solution 0.1 mM, pH 7.0, dissolved oxygen removed
# [5] = electron acceptor solution 0.1 mM, pH 7.0, dissolved oxygen removed, read-out: Relative Activity (%)
compound,measurement,setting,value
N[C@H]1C(O)O[C@H](CO)[C@@H](O)[C@@H]1O (stereo partly shown) [glucosamine],activity,[1],0%
O=S(=O)([O-])[O-].[Mg+2] [magnesium sulfate],Percent Inhibition (%),[2],0%
O=C(O)c1cc[c]([Hg][Cl])cc1 [p-chloromercuribenzoate],Inhibition of the enzymatic action in words,[2],inhibited
same,Percent Inhibition (%),[2],50.0%
O=C(CO)[C@@H](O)[C@H](O)[C@H](O)CO [fructose],activity at 100000 µM,[1],0%
O=S(=O)([O-])[O-].[Cu+2] [copper sulfate],Inhibition of the enzymatic action in words,[2],inhibited
same,Percent Inhibition (%),[2],35.7%
O=O [Oxygen],Suitability as electron acceptor in words,[3],optimum electron acceptor
same,Relative Activity (%),"[3]; electron acceptor: dissolved oxygen, pH 7.0, glucose substrate",100%
O=C(O)[C@H](O)[C@@H](O)[C@H](O)[C@H](O)CO [gluconic acid],activity,[1],0%
OC[C@H]1O[C@H](O[C@H]2[C@H](O)[C@@H](O)[C@H](O)O[C@@H]2CO)[C@H](O)[C@@H](O)[C@@H]1O [maltose],activity,[1],0%
"O=C1C(Cl)=CC(=Nc2ccc(O)cc2)C=C1Cl [2,6-Dichlorophenolindophenol]",Suitability as electron acceptor in words,[3],may be made electron acceptor
same,activity at 40 µM (stock),"[3]; electron acceptor solution 0.04 mM, pH 7.0, dissolved oxygen removed, read-out: Relative Activity (%)",2.5%
O=[N+]([O-])[O-].[Ag+] [silver nitrate],Inhibition of the enzymatic action in words,[2],inhibited
same,Percent Inhibition (%),[2],53.3%
OC1OC[C@@H](O)[C@H](O)[C@H]1O (stereo partly shown) [xylose],activity,[1],2.6%
same,Substrate specificity in words,[1],acts upon
Cytochrome C,Suitability as electron acceptor in words,[3],may be made electron acceptor
same,Relative Activity (%),[3]; [4],0.33%
NC(=O)c1ccc[n+]([C@@H]2O[C@H](COP(=O)([O-])OP(=O)(O)OC[C@H]3O[C@@H](n4cnc5c(N)ncnc54)[C@H](O)[C@@H]3O)[C@@H](O)[C@H]2O)c1 [Nicotinamide-adenine dinucleotide],activity at 100 µM (stock),[3]; [5],0%
OC[C@@H](O)[C@@H](O)[C@H](O)[C@H](O)CO [mannitol],activity,[1],0%
O=S(=O)([O-])[O-].[Co+2] [cobalt sulfate],Percent Inhibition (%),[2],13.3%
Nitroprusside-tetrazolium,Relative Activity (%),[3]; [4],0%
OC[C@H]1O[C@@H](O[C@H]2[C@H](O)[C@@H](O)C(O)O[C@@H]2CO)[C@H](O)[C@@H](O)[C@H]1O (stereo partly shown) [lactose],activity,[1],0%
O=C(CO)[C@H](O)[C@@H](O)[C@H](O)CO [sorbose],activity at 100000 µM,[1],3.4%
same,Substrate specificity in words,[1],acts upon
NC(=O)c1ccc[n+]([C@@H]2O[C@H](COP(=O)([O-])OP(=O)(O)OC[C@H]3O[C@@H](n4cnc5c(N)ncnc54)[C@H](OP(=O)(O)O)[C@@H]3O)[C@@H](O)[C@H]2O)c1 [Nicotinamide-adenine dinucleotide phosphate],activity at 100 µM (stock),[3]; [5],0%
OC[C@H]1O[C@H](O[C@H]2O[C@H](CO)[C@@H](O)[C@H](O)[C@H]2O)[C@H](O)[C@@H](O)[C@@H]1O [trehalose],activity,[1],0%
